Reference: ChEMBL document CHEMBL5518244, “Design, Synthesis, and Biological Evaluation of a Novel NIK Inhibitor with Anti-Inflammatory and Hepatoprotective Effects for Sepsis Treatment” (J Med Chem, 2024)
Activity calls are given as the source filed them. The rule behind the calls is not given here.

Experiments:
[1] = target: T1, Mitogen-activated protein kinase kinase kinase 14 (Homo sapiens, UniProt Q99558); experiment: Inhibition of NIK (unknown origin) incubated 30 to 60 mins by ADP-Glo Kinase
Target sequence in this assay (Q99558 whole entry): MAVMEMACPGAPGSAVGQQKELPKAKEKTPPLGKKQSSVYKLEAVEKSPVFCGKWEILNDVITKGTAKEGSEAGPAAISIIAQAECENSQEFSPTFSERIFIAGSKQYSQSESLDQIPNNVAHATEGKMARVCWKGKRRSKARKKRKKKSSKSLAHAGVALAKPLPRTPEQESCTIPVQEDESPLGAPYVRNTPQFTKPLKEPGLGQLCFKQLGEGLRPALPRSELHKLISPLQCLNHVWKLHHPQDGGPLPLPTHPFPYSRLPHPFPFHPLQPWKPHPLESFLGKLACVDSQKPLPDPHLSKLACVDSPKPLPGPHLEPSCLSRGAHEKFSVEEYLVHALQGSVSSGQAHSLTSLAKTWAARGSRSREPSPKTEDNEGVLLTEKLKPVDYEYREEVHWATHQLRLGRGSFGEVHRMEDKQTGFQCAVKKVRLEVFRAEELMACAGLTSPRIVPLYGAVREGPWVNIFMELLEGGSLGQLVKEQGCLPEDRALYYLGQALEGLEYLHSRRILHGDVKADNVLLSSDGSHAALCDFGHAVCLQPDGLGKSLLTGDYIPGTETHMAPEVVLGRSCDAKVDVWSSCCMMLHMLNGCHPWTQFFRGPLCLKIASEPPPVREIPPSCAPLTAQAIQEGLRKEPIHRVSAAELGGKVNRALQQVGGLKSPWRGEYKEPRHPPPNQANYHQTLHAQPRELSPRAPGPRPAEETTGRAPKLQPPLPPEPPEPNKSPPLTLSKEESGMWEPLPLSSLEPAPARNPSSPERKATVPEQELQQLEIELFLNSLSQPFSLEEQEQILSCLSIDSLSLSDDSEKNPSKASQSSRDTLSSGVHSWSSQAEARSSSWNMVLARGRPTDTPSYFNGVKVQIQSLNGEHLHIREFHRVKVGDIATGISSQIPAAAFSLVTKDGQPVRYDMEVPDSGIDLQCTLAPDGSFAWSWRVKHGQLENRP

[2] = target: T1, Mitogen-activated protein kinase kinase kinase 14; experiment: Inhibition of NIK (unknown origin) expressed in COS-7 cells co-expressing NF-KappaB luciferase reporter assessed as suppression of luciferase reporter at 5 uM measured after 24 by beta-Gal activity assay; format: cell-based
Target sequence in this assay (Q99558 whole entry, looked up): as the sequence (Q99558 whole entry) above

Macrophage = experiment: Anti-inflammatory activity in mouse macrophages extracted from abdominal activity assessed as inhibition of LPS-induced nitric oxide production at 1 uM measured after 22 hrs by Griess reagent assay relative to control; format: functional, cell-based
[3] = target: T1, Mitogen-activated protein kinase kinase kinase 14; experiment: Inhibition of NIK (unknown origin) expressed in COS-7 cells co-expressing NF-KappaB luciferase reporter assessed as suppression of luciferase reporter at 1 uM measured after 24 by beta-Gal activity assay; format: cell-based
Target sequence in this assay (Q99558 whole entry, looked up): as the sequence (Q99558 whole entry) above

[4] = target: T1, Mitogen-activated protein kinase kinase kinase 14; experiment: Inhibition of NIK (unknown origin) expressed in COS-7 cells co-expressing NF-KappaB luciferase reporter assessed as suppression of luciferase reporter measured after 24 by beta-Gal activity assay; format: cell-based
Target sequence in this assay (Q99558 whole entry): as above

IC50 [1] [nM]	SMILES	other results
4.73	CC(O)(C#Cc1cc2n(n1)CCCN2c1ncnc(Nc2ccc(Cl)cc2)n1)c1nccs1 (stereo not given)	–
22.1	CC(O)(C#Cc1cc2n(n1)CCCN2c1ccnc(Nc2ccc3ccccc3n2)n1)c1nccs1 (stereo not given)	–
6.74	COc1cc(Nc2nccc(N3CCCn4nc(C#CC(C)(O)c5nccs5)cc43)n2)cc(OC)c1 (stereo not given)	–
14.1	OC1(C#Cc2cc3n(n2)CCCN3c2ccnc(Nc3ccc4c(c3)OCO4)n2)CCCC1	–
> 500	C(#CC1CC1)c1cc2n(n1)CCCN2c1ccnc(Nc2ccc3c(c2)OCO3)n1	–
4.33	OC1(C#Cc2cc3n(n2)CCCN3c2ccnc(Nc3ccc4c(c3)OCO4)n2)CCn2ccnc21 (stereo not given)	–
> 500	CC(O)(C#Cc1cc2n(n1)CCCN2c1cccc(Nc2ccccc2)n1)c1nccs1 (stereo not given)	–
4.43	COc1cccc(Nc2nccc(N3CCCn4nc(C#CC(C)(O)c5nccs5)cc43)n2)n1 (stereo not given)	–
433	COc1cccnc1Nc1nccc(N2CCCn3nc(C#CC(C)(O)c4nccs4)cc32)n1 (stereo not given)	–
> 500	CC(O)(C#Cc1cc2n(n1)CCCN2c1ncnc2[nH]ccc12)c1nccs1 (stereo not given)	–
11.5	CC(O)(C#Cc1cc2n(n1)CCCN2c1ccnc(Nc2cccc(N3CCOCC3)c2)n1)c1nccs1 (stereo not given)	–
5.1	COc1ccnc(Nc2nccc(N3CCCn4nc(C#CC(C)(O)c5nccs5)cc43)n2)c1 (stereo not given)	–
5.35	Cn1cc(Nc2nccc(N3CCCn4nc(C#CC(C)(O)c5nccs5)cc43)n2)cn1 (stereo not given)	–
15.4	CC(O)(C#Cc1cc2n(n1)CCCN2c1ccnc(Nc2ccc3c(c2)OC(F)(F)O3)n1)c1nccs1 (stereo not given)	–
> 500	C(#Cc1cc2n(n1)CCCN2c1ccnc(Nc2ccc3c(c2)OCO3)n1)c1ccccn1	–
5.93	CC(O)(C#Cc1cc2n(n1)CCCN2c1ccnc(Nc2ccccn2)n1)c1nccs1 (stereo not given)	–
> 500	OC1(C#Cc2cc3n(n2)CCCN3c2ccnc(Nc3ccc4c(c3)OCO4)n2)COC1	–
34.2	COCCNc1nccc(N2CCCn3nc(C#CC(C)(O)c4nccs4)cc32)n1 (stereo not given)	–
16.6	CC(O)(C#Cc1cc2n(n1)CCCN2c1ccnc(Nc2cccc(C(F)(F)F)n2)n1)c1nccs1 (stereo not given)	–
6.17	CC(O)(C#Cc1cc2n(n1)CCCN2c1ccnc(Nc2ccc(F)cc2)n1)c1nccs1 (stereo not given)	–
2.85	CC(O)(C#Cc1cc2n(n1)CCCN2c1ccnc(Nc2ccc3c(c2)OCO3)n1)c1nccs1 (stereo not given)	inhibition [2]: Active; IC50 (Macrophage): 80300 nM; inhibition [3]: Active; IC50 [4]: 1410 nM
341	CC(O)(C#Cc1cc2n(n1)CCCN2c1ccnc(Nc2cc(N3CCOCC3)ccn2)n1)c1nccs1 (stereo not given)	–
3.78	Cc1cc(C(C)(O)C#Cc2cc3n(n2)CCCN3c2ccnc(Nc3ccc4c(c3)OCO4)n2)no1 (stereo not given)	–
16.5	CC(C)Oc1cccc(Nc2nccc(N3CCCn4nc(C#CC(C)(O)c5nccs5)cc43)n2)n1 (stereo not given)	–
6.96	CC(O)(C#Cc1cc2n(n1)CCCN2c1ccnc(Nc2cc(C#N)ccn2)n1)c1nccs1 (stereo not given)	–
22.7	CC(C)(O)C#Cc1cc2n(n1)CCCN2c1ccnc(Nc2ccc3c(c2)OCO3)n1	–
89.4	COc1cc(Nc2nccc(N3CCCn4nc(C#C[C@](C)(O)c5nccs5)cc43)n2)cc(OC)c1	–
8.34	CC(O)(C#Cc1cc2n(n1)CCCN2c1ccnc(Nc2ccc(F)cn2)n1)c1nccs1 (stereo not given)	–

IC50 [1] [nM]	SMILES	other results
5.39	CC(O)(C#Cc1cc2n(n1)CCCN2c1ccnc(NC23CC(C2)C3)n1)c1nccs1 (stereo not given)	inhibition [2]: Active; IC50 (Macrophage): 16500 nM; inhibition [3]: Active; IC50 [4]: 1510 nM
7.76	CN(C)c1cccc(Nc2nccc(N3CCCn4nc(C#CC(C)(O)c5nccs5)cc43)n2)c1 (stereo not given)	inhibition [2]: Active; IC50 (Macrophage): 76800 nM; inhibition [3]: Active; IC50 [4]: 2230 nM
131	CC(O)(C#Cc1cc2n(n1)CCCN2c1ccnc(NC2CCCCC2)n1)c1nccs1 (stereo not given)	–
11.3	CC(O)(C#Cc1cc2n(n1)CCCN2c1ccnc(Nc2ccccc2)c1)c1nccs1 (stereo not given)	–
9.36	Cn1ccc(Nc2nccc(N3CCCn4nc(C#CC(C)(O)c5nccs5)cc43)n2)n1 (stereo not given)	–
6.99	CC(O)(C#Cc1cc2n(n1)CCCN2c1ccnc(Nc2cc(Cl)ccn2)n1)c1nccs1 (stereo not given)	–
> 500	CC(O)(C#Cc1cc2n(n1)CCCN2c1nc(N)ncc1F)c1nccs1 (stereo not given)	–
6.46	CC(O)(C#Cc1cc2n(n1)CCCN2c1ccnc(Nc2ccc(Cl)cc2)n1)c1nccs1 (stereo not given)	–
2.68	CC(O)(C#Cc1ccc2c(c1)N(c1nc(N)ncc1Cl)CC2)c1nccs1 (stereo not given)	IC50 (Macrophage): 58600 nM; IC50 [4]: 910 nM
14.3	CC(C)Nc1nccc(N2CCCn3nc(C#CC(C)(O)c4nccs4)cc32)n1 (stereo not given)	–
4.6	CC(O)(C#Cc1cc2n(n1)CCCN2c1ccnc(N)n1)c1nccs1 (stereo not given)	–
9.8	CC(O)(C#Cc1cc2n(n1)CCCN2c1ccnc(Nc2cccc(N3CCOCC3)n2)n1)c1nccs1 (stereo not given)	inhibition [2]: Active; IC50 (Macrophage): 17200 nM; inhibition [3]: Active; IC50 [4]: 2430 nM
29.1	CC(O)(C#Cc1cc2n(n1)CCCN2c1ccnc(Nc2ccc3c(c2)OCO3)n1)c1ccccc1 (stereo not given)	–
9.17	CC(C)n1cc(Nc2nccc(N3CCCn4nc(C#CC(C)(O)c5nccs5)cc43)n2)cn1 (stereo not given)	–
14.8	COCCN(C)c1cccc(Nc2nccc(N3CCCn4nc(C#CC(C)(O)c5nccs5)cc43)n2)n1 (stereo not given)	–
5.77	COc1cccc(Nc2nccc(N3CCCn4nc(C#CC(C)(O)c5nccs5)cc43)n2)c1 (stereo not given)	inhibition [2]: Active; IC50 (Macrophage): 45900 nM; inhibition [3]: Active; IC50 [4]: 1330 nM
7.44	COc1ccc(Nc2nccc(N3CCCn4nc(C#CC(C)(O)c5nccs5)cc43)n2)nc1 (stereo not given)	–
11.2	CNc1nccc(N2CCCn3nc(C#CC(C)(O)c4nccs4)cc32)n1 (stereo not given)	–
208	CN(C)c1ccnc(Nc2nccc(N3CCCn4nc(C#CC(C)(O)c5nccs5)cc43)n2)c1 (stereo not given)	–
58.4	CC(O)(C#Cc1cc2n(n1)CCCN2c1cc(Nc2ccc(F)cc2)ncn1)c1nccs1 (stereo not given)	–
5.01	CC(O)(C#Cc1cc2n(n1)CCCN2c1ccnc(Nc2cccc(C#N)c2)n1)c1nccs1 (stereo not given)	inhibition [2]: Active; IC50 (Macrophage): 64100 nM; inhibition [3]: Active; IC50 [4]: 3560 nM
10.7	COc1cc(Nc2nccc(N3CCCn4nc(C#CC(C)(O)c5nccs5)cc43)n2)nc(OC)c1 (stereo not given)	–
11.3	CC(O)(C#Cc1cc2n(n1)CCCN2c1ccnc(Nc2ccncn2)n1)c1nccs1 (stereo not given)	–
24.6	CC(O)(C#Cc1cc2n(n1)CCCN2c1ccnc(Nc2cccc(N3CCCCC3)n2)n1)c1nccs1 (stereo not given)	–
13	CN(C)c1cccc(Nc2nccc(N3CCCn4nc(C#CC(C)(O)c5nccs5)cc43)n2)n1 (stereo not given)	–
70.8	CC(O)(C#Cc1cc2n(n1)CCCN2c1nc(N)ncc1Cl)c1nccs1 (stereo not given)	–
4.76	CC(O)(C#Cc1cc2n(n1)CCCN2c1ccnc(Nc2ccccc2)n1)c1nccs1 (stereo not given)	inhibition [2]: Active; IC50 (Macrophage): 59400 nM; inhibition [3]: Active; IC50 [4]: 2170 nM
